Source: patent publication US20240391956A1, “STAPLED PEPTIDES AND METHODS THEREOF” (FOG PHARMACEUTICALS, INC., priority 2023, published 2024)
*1 amine or outer side, *2 acyl side, *3 side chain or, on linkers, in order; H or OH if unused. Where a SMILES comes first, the peptide text is derived from it. Bridges are numbered along the chain shown (N, C = ends). [ ]: non-standard residue; d: D form. Phenylene(1,4-NHCOCH2)2 = O=C(C[*:1])Nc1ccc(NC(=O)C[*:2])cc1

Target: T1, CHIP23-303 recombinant protein (Homo sapiens, UniProt Q9UNE7)
T1 construct: 6xHis (N, cleaved yes); TEV site (N, cleaved yes); made in house; host or cells: E. coli BL21 CodonPlus
T1 sequence (Q9UNE7 23-303): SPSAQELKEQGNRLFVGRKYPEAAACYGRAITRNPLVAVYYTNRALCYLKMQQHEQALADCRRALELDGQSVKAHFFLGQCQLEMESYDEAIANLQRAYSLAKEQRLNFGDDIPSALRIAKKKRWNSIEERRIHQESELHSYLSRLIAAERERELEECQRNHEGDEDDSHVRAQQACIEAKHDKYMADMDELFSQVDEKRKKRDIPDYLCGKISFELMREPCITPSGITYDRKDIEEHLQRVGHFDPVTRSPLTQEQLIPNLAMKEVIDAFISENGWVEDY
Test: Competition fluorescence polarization with CHIP23-303 and HSP70-derived probe 5FAM-bAla-[…]
Format: binding
Conditions: competition FP, 400 nM CHIP23-303, 20 nM probe, 1 hour at room temperature; read-out: Measured KD
Protocol: For the competition FP of CHIP, stapled peptides at 10 mM in DMSO were serially diluted 1:3 in DMSO for a total of 11 concentrations using a Mosquito LV (SPT Labtech), then diluted 1000-fold in buffer (1×HBS-P+, Cytiva) in duplicate by the Mosquito LV (SPT Labtech) into a black polystyrene 384-well plate (Corning) (11-point three-fold peptide dilution series with top concentration=10 μM). The assay was performed with 400 nM CHIP23-303 recombinant protein as target, and 20 nM BCHIP-binding peptide as probe (5FAM-bAla-[…] (SEQ ID NO: 18), derived from HSP70). The plate was incubated and protected from light for 1 hour at room temperature prior to reading. Reads were performed on a CLARIOstar plate reader (BMG Labtech) with excitation at 485 nm, emission at 525 nm, and cutoff at 504 nm. Data were fitted to a 1:1 binding model with Hill slope using an in-house script.
In some embodiments, CHP polypeptide was prepared as follows: CHIP (residues 23-303 for competition FP and 23-154 for crystallography) with an N-terminal 6×His-TEV tag was recombinantly expressed in E. coli BL21 CodonPlus cells (Agilent) from a pET21b-derived expression vector (Novagen) (“6×His” disclosed as SEQ ID NO: 13). The cells were induced at OD600=0.6 with 1 mM IPTG for 4 hours at 37° C., then harvested and resuspended in 50 mM Tris-HCl pH 8.0, 500 mM NaCl, 10 mM imidazole, 10% glycerol, and 10 mM ß-me. For purification, the pellet was lysed with a tip sonicator with power level set at 400 W, 3 seconds on and 3 seconds off for 20 min, pelleted at 22,000×g for 30 minutes at 4° C. The supernatant was purified with Ni-NTA resin (Qiagen), eluting with 250 mM imidazole. Eluted proteins were pooled, concentrated, and TEV-cleaved by adding TEV protease at a ratio of 1:10 protease to protein and incubated overnight at 4° C. TEV-cleaved proteins were loaded onto a Superdex™ 10/300 75 pg (Cytiva) SEC column, and eluted in 50 mM HEPES, pH 8.0, 150 mM NaCl, 10% glycerol, 2 mM DTT. Fractions containing pure protein were collected, pooled, concentrated to 30 mg/mL and stored at −80° C. […]

Kd	SMILES
470 nM	CC[C@@H](C)[C@@H](NC(=O)[C@@H](CC(N)=O)NC(=O)[C@@H](Cc1ccc(O)cc1)NC(=O)[C@H]1CSCC(=O)Nc2ccc(cc2)NC(=O)CSC[C@@H](NC(=O)[C@@H](CC(=O)O)NC(=O)[C@@H](CCC(=O)O)NC(=O)[C@@H](Cc2c[nH]c3ccccc23)NC(=O)[C@H]2CCCN2C(C)=O)C(=O)N[C@H](C)C(=O)N[C@H](Cc2c[nH]c3ccccc23)C(=O)N[C@H](Cc2ccccc2)C(=O)N[C@H](C)C(=O)N[C@H](Cc2c[nH]c3ccccc23)C(=O)N[C@H](C)C(=O)N1)C(N)=O [H201, Ac-pwedcawfawacyni-NH2] (Ac-[dP][dW][dE][dD][dC][dA][dW][dF][dA][dW][dA][dC][dY][dN][dI]-NH2; linker 5-12 via Phenylene(1,4-NHCOCH2)2)
550 nM	CSCC[C@@H](NC(=O)[C@@H](CCC(=O)O)NC(=O)[C@@H](Cc1c[nH]cn1)NC(=O)[C@H]1CCCN1C(C)=O)C(=O)N[C@@H]1CSCC(=O)Nc2ccc(cc2)NC(=O)CSC[C@H](C(=O)N[C@H](CCCNC(=N)N)C(=O)N[C@H](Cc2ccc(O)cc2)C(=O)N[C@H](CO)C(N)=O)NC(=O)[C@@H](Cc2ccc(O)cc2)NC(=O)[C@@H](C)NC(=O)[C@@H](CC(=O)O)NC(=O)[C@@H](C)NC(=O)[C@@H](Cc2c[nH]c3ccccc23)NC(=O)[C@@H](Cc2ccc(O)cc2)NC1=O [H203, Ac-phemcywadaycrys-NH2] (Ac-[dP][dH][dE][dM][dC][dY][dW][dA][dD][dA][dY][dC][dR][dY][dS]-NH2; linker 5-12 via Phenylene(1,4-NHCOCH2)2)
770 nM	CC[C@@H](C)[C@@H](NC(=O)[C@H]1CSCC(=O)Nc2ccc(cc2)NC(=O)CSC[C@@H](NC(=O)[C@@H](CC(C)C)NC(=O)[C@@H](CC(=O)O)NC(=O)[C@@H](CC(C)C)NC(=O)[C@H]2CCCN2C(C)=O)C(=O)N[C@H](Cc2ccc(O)cc2)C(=O)N[C@H](Cc2c[nH]c3ccccc23)C(=O)N[C@H](C)C(=O)N[C@H](CO)C(=O)N[C@H](CC(C)C)C(=O)N[C@H](Cc2c[nH]cn2)C(=O)N1)C(=O)N[C@@H](C(=O)N[C@H](CO)C(N)=O)C(C)C [H204, Ac-pldlcywaslhcivs-NH2] (Ac-[dP][dL][dD][dL][dC][dY][dW][dA][dS][dL][dH][dC][dI][dV][dS]-NH2; linker 5-12 via Phenylene(1,4-NHCOCH2)2)
